The source of these data is patent publication US9328138B2 (priority 2011, dated 2016).

Several values for one entry are separate records, joined by “and”; a condition that tells them apart may be missing. Identical values can stand only once.

For orientation: Ki means a dissociation constant, usually derived from enzyme kinetics or from competition with a known ligand. Low values mean a stronger hold on the target, high ones a looser hold on the target.

The target in experiment [1] is HCV NS3 protease genotype 3a (3A-1) (Hepatitis C virus genotype 3a, UniProt Q81258). Put plainly: HCV NS3 protease time-resolved fluorescence (TRF) assay, genotype 3a. The format is biochemical. To be noted: Ki 3a. Put shortly: (§1)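 IC50 values derive from 4-parameter fitting of TRF signal after a 6 h room-temperature cleavage of 25 nM peptide substrate by NS3/NS4A that had been pre-incubated 10 min with compound.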

Experiment [2] concerns the target T1, HCV genotype 1b (BK) NS3 modified enzyme with a R155K mutation (Hepatitis C virus genotype 1b, UniProt P26663, R1181K).
T1 construct: HCV genotype 1b (BK) NS3 modified enzyme
Put plainly: HCV NS3 protease time-resolved fluorescence (TRF) assay, genotype 1b R155K. The experiment is classed as biochemical. As to conditions: Ki 1b R155K, genotype 1b (BK) NS3 R155K; single value. Put shortly: as §1

In the case of `C=C[C@@H]1C[C@]1(NC(=O)[C@@H]1C[C@@H]2CN1C(=O)[C@H](C(C)(C)C)NC(=O)O[C@@H]1CCC[C@H]1CCCCCc1c(nc3ccccc3c1OCCN(C)C)O2)C(=O)NS(=O)(=O)C1(CCN2CCOCC2)CC1` [Example 103, (3aR,7S,10S,12R,24aR)-7-tert-butyl-19-[2-(dimethylamino)ethoxy]-N-{(1R,2S)-2-ethenyl-1-[({1-[2-(morpholin-4-yl)ethyl]cyclopropyl}sulfonyl)carbamoyl]cyclopropyl}-5,8-dioxo-1,2,3,3a,5,6,7,8,11,12,20,21, 22,23,24,24a-hexadeca hydro-10H-9,12-methanocyclo-penta[18,19][1,10,3,6] dioxadiazacyclononadecino [11,12-b]quinoline-10-carboxamide], the inhibition constant Ki in experiment [1] is 8.5 nM and 1.1 nM; in experiment [2] it was 0.77 nM and 0.13 nM.

Regarding `C=C[C@@H]1C[C@]1(NC(=O)[C@@H]1C[C@@H]2CN1C(=O)[C@H](C(C)(C)C)NC(=O)O[C@@H]1CCC[C@H]1CCCCCc1c(nc3ccccc3c1OCCN1CCOCC1)O2)C(=O)NS(=O)(=O)C1CC1` [Example 104, (3aR,7S,10S,12R,24aR)-7-tert-butyl-N-{(1R,2S)-1-[(cyclopropylsulfonyl)carbamoyl]-2-ethenylcyclopropyl}-19-[2-(morpholin-4-yl)ethoxy]-5,8-dioxo-1,2,3,3a,5,6,7,8,11,12,20, 21,22,23,24,24a-hexadecahydro-10H-9,12-methanocyclopenta[18,19] [1,10,3,6]dioxadiaza-cyclononadecino[11,12-b] quinoline-10-carboxamide], the inhibition constant (Ki) in experiment [1] stood at 26 nM; in experiment [2], 1.3 nM.

`C=C[C@@H]1C[C@]1(NC(=O)[C@@H]1C[C@@H]2CN1C(=O)[C@H](C(C)(C)C)NC(=O)O[C@@H]1CCC[C@H]1CCCCCc1c(nc3ccccc3c1OCCN1CCOCC1)O2)C(=O)NS(=O)(=O)C1(C)CC1` [Example 105, (3aR,7S,10S,12R,24aR)-7-tert-butyl-N-[(1R,2S)-2-ethenyl-1-{[(1-methyl-cyclopropyl)sulfonyl]carbamoyl}cyclopropyl]-19-[2-(morpholin-4-yl)ethoxy]-5,8-dioxo-1,2,3,3a, 5,6,7,8,11,12,20,21, 22,23,24,24a-hexadeca hydro-10H-9,12-methanocyclopenta [18,19][1,10,3,6]dioxadiazacyclo nonadecino[11,12-b]quinoline-10-carboxamide]: the Ki in experiment [1] turned out to be 14 nM; in experiment [2], 0.43 nM.

Regarding `C=C[C@@H]1C[C@]1(NC(=O)[C@@H]1C[C@@H]2CN1C(=O)[C@H](C(C)(C)C)NC(=O)O[C@@H]1CCC[C@H]1CCCCCc1c(nc3ccccc3c1OCCN1CCOCC1)O2)C(=O)NS(=O)(=O)N(C)C` [Example 106, (3aR,7S,10S,12R,24aR)-7-tert-butyl-N-{(1R,2S)-1-[(dimethylsulfamoyl)carbamoyl]-2-ethenylcyclopropyl}-19-[2-(morpholin-4-yl)ethoxy]-5,8-dioxo-1,2,3,3a,5,6,7,8,11,12,20,21,22,23,24,24a-hexadecahydro-10H-9,12-methanocyclopenta[18,19][1,10,3,6]dioxadiazacyclononadecino[11,12-b]quinoline-10-carboxamide], the Ki is 17 nM in experiment [1] and 0.78 nM in experiment [2].

Regarding `C=C[C@@H]1C[C@]1(NC(=O)[C@@H]1C[C@@H]2CN1C(=O)[C@H](C(C)(C)C)NC(=O)O[C@@H]1CCC[C@H]1CCCCCc1c(nc3ccccc3c1OCCN1CCOCC1)O2)C(=O)NS(=O)(=O)N1CCC1` [Example 107, (3aR,7S,10S,12R,24aR)-N-{(1R,2S)-1-[(azetidin-1-ylsulfonyl)carbamoyl]-2-ethenylcyclopropyl}-7-tert-butyl-19-[2-(morpholin-4-yl)ethoxy]-5,8-dioxo-1,2,3,3a,5,6,7,8,11,12,20,21,22,23,24,24a-hexadecahydro-10H-9,12-methanycyclopenta [18,19][1,10,3,6]dioxadiazacyclo nonadecino[11,12-b]quinoline-10-carboxamide], the Ki in experiment [1] was 23 nM; in experiment [2], 0.74 nM.
